In patent publication US11661404B2, “Prodrug compounds activated by AKR1C3 and their use for treating hyperproliferative disorders” (priority 2018, dated 2023):
Where two headings read alike, the source gives them in different places.

Tests used:
[1] = system: HCT116 colon cancer cells engineered to over-express AKR1C3; assay: Anti-proliferative IC50 assay (SRB), HCT116 over-expressing AKR1C3; assay type: cell-based, human; conditions: for IC50 Ratio WT:AKR1C3: HCT116-WT vs HCT116-AKR1C3
Excerpt: (§1) The cellular cytotoxicity of compounds of the invention resulting from AKR1C3-dependent metabolism of the compounds can readily be observed in anti-proliferative IC50 testing in isogenic cell lines that have been engineered to over-express human AKR1C3, relative to their wild-type counterparts that have been selected for their comparatively low levels of endogenous AKR1C3 expression (by Western blot analysis). The direct role of AKR1C3 in metabolism and cytotoxicity of the compounds is further supported for selected examples by repeat anti-proliferative experiments in the presence of a potent and selective small molecule inhibitor of AKR1C3, SN34037 (Flanagan et al., Bioorganic & Medicinal Chemistry (2014), 22(3), 967-977).
(§2) Four hundred cells were seeded in a volume of 100 μL in each well of a 96-well plate. The cells were left in a humidified incubator (37° C., 5% CO2) for 2 hours in order to enable attachment to the surface of the wells prior to compound addition. All compounds were prepared as stocks in DMSO and stored at −80° C. Frozen stocks of compounds were thawed immediately prior to addition to cells. Working solutions of each compound were made in α-MEM+5% FBS (v/v) at 3 times the required final concentration for the top well. The final concentration of DMSO in the α-MEM solution was ensured to not exceed 1% of the total volume. 50 μL of the working solution was added to the top wells (in duplicates) and gently mixed. The solubility of some compounds precluded the working solution in α-MEM to be 3 times the desired top well concentration. […] A 3-fold serial dilution was carried out along the plate starting from the top well. The first column of wells on the plate served as blanks (containing α-MEM+FBS) and the second column served as control wells (containing cells with no compound added). Following compound addition, the plates were incubated for 4 hours in a humidified incubator (37° C., 5% CO2).
(§3) Following the 4 hour compound exposure, the 96-well plates were washed three times by aspirating media with an Immuno Washer (Nunc) and each well replaced with 150 μL of α-MEM+5% (v/v) FBS+1% (v/v) P/S. The plates were left in a humidified incubator (37° C., 5% CO2) for 5 days to enable cell growth. The cells in 96-well plates were fixed 5 days after compound exposure by adding 50 μL of a 40% (w/v) trichloroacetic acid (TCA) solution so as to obtain a final TCA concentration of 10% in each well. The plates were left in the refrigerator (4° C.) for 1 hour and subsequently rinsed 3 times in tap water. Any excess water was left to drain and the cells were stained with 50 μL of 0.4% (w/v) sulforhodamine B (SRB). The plates with the SRB stain were left in the dark for 30 minutes. Excess stain was removed from the wells by rinsing the plates 4 times in water containing 1% (v/v) acetic acid. The stain was solubilised by adding 100 μL of 10 mM unbuffered Tris (pH 10.5) to each well and the plates were left in a shaker in a dark environment at room temperature for at least 1 hour. The absorbance values of the wells were determined by an ELx 808 Absorbance Microplate Reader (Bio-Tek Instruments, Winooski, Vt., USA), with the wavelength of the measurement filter set at 490 nm and a reference filter set at 450 nm. The absorbance of the reference filter was subtracted from the measurement filter to obtain a final absorbance of λ490-450 nm. The absorbance data was analysed and IC50 values determined by the KC4 microplate data analysis software (KC4™ V3.4, Bio-Tek).
(§4) Anti-proliferative IC50 assays were repeated as described above including the addition of 3 μM SN34037, a selective and potent small molecule inhibitor of AKR1C3.

[2] = target: T1, recombinant human AKR1C3 (Homo sapiens, UniProt P42330); assay: Kinetics assay: metabolism of prodrugs by recombinant human AKR1C3; assay type: biochemical; conditions: NADPH, pH 7.4, 37° C.
T1 construct: His6 (hexahistidine) (C); made in house; host or cells: E. coli BL21(DE3)
T1 sequence (P42330 1-323): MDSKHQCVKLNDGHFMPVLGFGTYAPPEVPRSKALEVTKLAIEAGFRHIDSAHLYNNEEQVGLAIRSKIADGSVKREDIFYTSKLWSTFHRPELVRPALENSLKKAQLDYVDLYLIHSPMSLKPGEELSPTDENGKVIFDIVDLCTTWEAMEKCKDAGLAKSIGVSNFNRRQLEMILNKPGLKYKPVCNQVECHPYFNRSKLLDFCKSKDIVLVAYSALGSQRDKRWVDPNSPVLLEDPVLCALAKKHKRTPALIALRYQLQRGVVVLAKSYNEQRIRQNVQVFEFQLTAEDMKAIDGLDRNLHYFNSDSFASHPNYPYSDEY
Method: E. coli BL21(DE3) cells expressing the pET22b-AKR1C3 construct with a C-terminal hexahistidine (His6) tag and constitutive promoter was generated. Colonies of these transformed E. coli cells were grown in LB agar medium containing 100 μg/mL of ampicillin. A single colony was picked the following day and grown in 400 mL batches of bacterial medium containing ampicillin (100 μg/mL) at 37° C., with continuous shaking at 200 rpm overnight. Bacterial cultures were pelleted by centrifugation (4000×g, 15 minutes) and resuspended in lysis buffer (10 mL/400 mL culture). The cells were disrupted by sonication (Sonicator 3000, Misonix) and centrifuged at 14,000 rpm for 30 minutes (at 4° C.). The cleared lysate was filtered in successive filters containing pore sizes of 1.20 μm, 0.8 μm and 0.2 μm and loaded onto a nickel-agarose affinity chromatography column on an ÄKTA Purifier system. The column was washed with 20 mL of the lysis buffer and the His6-tagged AKR1C3 protein was eluted with lysis buffer supplemented with 500 mM imidazole. The protein was further purified by a liquid chromatography gel filtration column (Superdex 200 HR16/60) using lysis buffer (supplemented with 5% v/v glycerol) and 1 mM DTT (pH 7.0) at a flow rate of 0.3 mL/min. Protein was monitored by absorbance at 280 nm, and purity of the fractions (1 mL) was assessed by SDS-PAGE. Active fractions containing the purified protein were pooled and concentrated by centrifugation (3,000×g, 4° C.) on a Vivaspin concentrator (MWCO 10,000 cutoff; GE Healthcare). The protein containing solution was supplemented with glycerol (to a final concentration of 15%, v/v) and NADP^+ was added to a final concentration of 2 mM.
Kinetic parameters of compounds of the invention were determined in a 96-well plate format. The 100 mM potassium phosphate buffer used in this assay was made with the following reagents to a pH of 7.4: • 0.5 M K2HPO4— 8.2 mL • 0.5 M KH2PO4— 1.8 mL • BSApowder—25 mg • Milli Q water—40 mL
For the assay, 2 μL of varying substrate concentrations were incubated with 94 μL of the potassium phosphate buffer and 2 μL of 5 mM NADPH for 5 minutes in the pre-warmed (37° C.) plate chamber of a Molecular Devices SpectraMax M2 plate reader. Purified AKR1C3 enzyme (2 μL) was added to a final concentration of […] in each well using an Eppendorf electronic multi-channel pipette. Absorbance measurements were recorded immediately upon addition of enzyme over a period of 5 minutes at a wavelength of 400 nm. Absorbance changes for each compound concentration were plotted against time to obtain the rate of absorbance change over the 5 minute period. The rate of absorbance change was then plotted against the compound concentration and non-linear regression analysis and Michaelis-Menten curve fitting performed on GraphPadPrism (version 5.00 for Windows, GraphPad Software, San Diego Calif. USA) in order to determine kinetic parameters of compounds.

[3] = system: wild-type HCT116 colon cancer cells; assay: Anti-proliferative IC50 assay (SRB), wild-type HCT116; assay type: cell-based, human
Excerpt: as §1, §2, §3, §4

[4] = system: wild-type H460 lung cancer cells; assay: Anti-proliferative IC50 assay, wild-type H460; assay type: cell-based, human
Method: as §2, §3, §4
Materials and methods used are as described for Example 9.

[5] = system: SNU398 hepatocellular carcinoma cells engineered to over-express AKR1C3; assay: Anti-proliferative IC50 assay, SNU398 over-expressing AKR1C3; assay type: cell-based, human
Method: as §2, §3, §4
(§5) Materials and methods used are as described for Example 9. […] This is a surprising finding and considerably greater than the approximately 77-fold, 270-fold and 400-fold increase in sensitivity observed for PR-104A, SN33540 and SN34454, respectively. In all cases, this increase in cytotoxicity resulting from expression of AKR1C3 can be substantially reversed by addition of an AKR1C3 inhibitor (SN34037), directly implicating metabolism of the prodrugs by AKR1C3 in the observed increase in cytotoxicity. As an important control, introduction of SN34037 had no anti-proliferative effects in wild-type SNU398 cells treated with compounds of the invention.

[6] = system: wild-type SNU398 hepatocellular carcinoma cells; assay: Anti-proliferative IC50 assay, wild-type SNU398; assay type: cell-based
Method: as §2, §3, §4, §5

[7] = Homo sapiens, HCT-116, read-out: HCT116-AKR1C3 IC50
[8] = Homo sapiens, HCT-116, read-out: HCT116-WT IC50
[9] = Homo sapiens, NCI-H460; read-out: H460-WT Anti-proliferative IC50
[10] = Homo sapiens, NCI-H460; with 3 μM SN34037; read-out: H460-WT +AKR1C3 Inhibitor Anti-proliferative IC50
[11] = Homo sapiens, SNU-398; read-out: SNU398-AKR1C3 Anti-proliferative IC50
[12] = Homo sapiens, SNU-398; with 3 μM SN34037; read-out: SNU398-AKR1C3 +AKR1C3 Inhibitor Anti-proliferative IC50
[13] = Homo sapiens, HCT-116, 4 hour exposure, 5 days growth, read-out: HCT116-AKR1C3 IC50
[14] = with 3 μM SN34037, read-out: HCT116-AKR1C3 + AKR1C3 Inhibitor IC50
[15] = Homo sapiens, SNU-398; read-out: SNU398-WT Anti-proliferative IC50
[16] = Homo sapiens, SNU-398; with 3 μM SN34037; read-out: SNU398-WT +AKR1C3 Inhibitor Anti-proliferative IC50
[17] = Homo sapiens, HCT-116, 4 hour exposure, 5 days growth, read-out: HCT116-WT IC50
[18] = with 3 μM SN34037, read-out: HCT116-WT + AKR1C3 Inhibitor IC50

CS(=O)(=O)OCCN(CCBr)c1c(C(=O)N2CCN(c3ccccc3)CC2)cc([N+](=O)[O-])cc1[N+](=O)[O-] [SN35028, reference compound]
IC50 Ratio WT:AKR1C3 [1]: >36 | IC50 [1, 7]: 4150 nM | Km [2]: 7.3 µM | kcat [2]: 29.1 s⁻¹ | IC50 [3, 8]: > 150 µM

CS(=O)(=O)OCCN(CCOS(C)(=O)=O)c1ccc([N+](=O)[O-])cc1S(=O)(=O)N1CCNCC1 [Compound 640, ((4-nitro-2-(piperazin-1-ylsulfonyl)phenyl)azanediyl)bis(ethane-2,1-diyl) dimethanesulfonate]
IC50 [4, 9]: 27 nM | IC50 [4, 10]: 5880 nM | IC50 [5, 11]: 26 nM | IC50 [5, 12]: 6540 nM | IC50 Ratio WT:AKR1C3 [1]: 469 | IC50 [1, 13]: 9 nM | IC50 [1, 14]: 2060 nM | IC50 [6, 15]: 8.47 µM | IC50 [6, 16]: 8.49 µM | IC50 [3, 17]: 4.22 µM | IC50 [3, 18]: 4.1 µM

O=C(c1cc([N+](=O)[O-])cc([N+](=O)[O-])c1N(CCBr)CCBr)N1CCc2ccccc2C1 [SN34947, reference compound]
IC50 Ratio WT:AKR1C3 [1]: 28 | IC50 [1, 7]: 2410 nM | Km [2]: 7.8 µM | kcat [2]: 23.8 s⁻¹ | IC50 [3, 8]: 66.8 µM

CS(=O)(=O)OCCN(CCOS(C)(=O)=O)c1ccc([N+](=O)[O-])cc1S(=O)(=O)N1CCN(CC(O)CO)CC1 (stereo not shown) [Compound 644, ((2-((4-(2,3-dihydroxypropyl)piperazin-1-yl)sulfonyl)-4-nitrophenyl)azanediyl)bis(ethane-2,1-diyl) dimethanesulfonate]
IC50 [4, 9]: 387 nM | IC50 [4, 10]: 88300 nM | IC50 [5, 11]: 262 nM | IC50 [5, 12]: 63700 nM | IC50 Ratio WT:AKR1C3 [1]: 978 | IC50 [1, 13]: 109 nM | IC50 [1, 14]: 47000 nM | IC50 [6, 15]: 73.8 µM | IC50 [6, 16]: 68.4 µM | IC50 [3, 17]: 107 µM | IC50 [3, 18]: 112 µM

CCN1CCN(S(=O)(=O)c2cc([N+](=O)[O-])ccc2N(CCOS(C)(=O)=O)CCOS(C)(=O)=O)CC1 [Compound 642, ((2-((4-ethylpiperazin-1-yl)sulfonyl)-4-nitrophenyl)azanediyl)bis(ethane-2,1-diyl) dimethanesulfonate]
IC50 ([4]; Homo sapiens, NCI-H460, read-out: H460-WT +AKR1C3 Inhibitor Anti-proliferative IC50): 2240 nM | IC50 ([4]; Homo sapiens, NCI-H460, read-out: H460-WT Anti-proliferative IC50): 1 nM | IC50 ([5]; Homo sapiens, SNU-398, read-out: SNU398-AKR1C3 +AKR1C3 Inhibitor Anti-proliferative IC50): 1280 nM | IC50 ([5]; Homo sapiens, SNU-398, read-out: SNU398-AKR1C3 Anti-proliferative IC50): 2 nM | IC50 Ratio WT:AKR1C3 [1]: 1930 | IC50 [1, 7]: 1 nM | IC50 ([1]; read-out: HCT116-AKR1C3 + AKR1C3 Inhibitor IC50, with 3 μM SN34037): 828 nM | IC50 ([6]; Homo sapiens, SNU-398, read-out: SNU398-WT +AKR1C3 Inhibitor Anti-proliferative IC50): 12.1 µM | IC50 ([6]; Homo sapiens, SNU-398, read-out: SNU398-WT Anti-proliferative IC50): 10.3 µM | IC50 [3, 8]: 1.93 µM | IC50 ([3]; read-out: HCT116-WT + AKR1C3 Inhibitor IC50, with 3 μM SN34037): 2.37 µM
